Measured values taken from patent publication US11547301B2, “Methods for collecting and testing bacteria containing samples from within the gastrointestinal tract” (priority 2016, dated 2023).

Key:
[1] = tested on: Propionibacterium acnes and Staphylococcus epidermidis; settings: aerobic and anaerobic organisms; cited from earlier work
[2] = tested on: dermatophytes, yeasts, moulds and other fungi; settings: cited from earlier work
[3] = tested on: Gram-positive and Gram-negative bacteria; settings: e.g., Escherichia coli, Proteus mirabilis, Pseudomonas aeruginosa, Staphylococcus and Streptococcus species; cited from earlier work
C. albicans = assay: Fungal contamination of incubated OD assay, with or without anti-fungal recovery media; type: cell-based; settings: TSB containing 2.5 mg/L Amphotericin B
[4] = tested on: Escherichia coli ATCC 25922; assay: OD (600 nm) of incubated bacterial samples under simulated GI conditions (bile, mucin, pH, yeast), 4 hour incubation; type: cell-based; settings: Yeast+Amphotericin B
Procedure: (§1) Experiments were performed in order to simulate an ingestible device that contains sterile media that is inoculated with a sample of fluid from the GI tract and incubated in transit. […] The samples were also incubated under conditions of shear forces and temperature that simulate conditions of an ingestible device in transit within the GI tract.
(§2) The assay utilized 50 μL, sample volumes, under shear (110 rpm) and at body temperature (37° C.) over a 4 hour incubation period to simulate transit of an ingestible device within the GI tract. […] Experiments were conducted in quintuplicate.

[5] = tested on: Staphylococcus epidermidis ATCC 12228; assay: as above; type: cell-based; settings: Yeast Amphotericin B
Procedure: as §1, §2

[6] = numerous murine models; cited from earlier work
human IL-6 = human IL-6 (Homo sapiens, UniProt P05231); settings: cited from earlier work
Chain of human IL-6 (P05231 30-212): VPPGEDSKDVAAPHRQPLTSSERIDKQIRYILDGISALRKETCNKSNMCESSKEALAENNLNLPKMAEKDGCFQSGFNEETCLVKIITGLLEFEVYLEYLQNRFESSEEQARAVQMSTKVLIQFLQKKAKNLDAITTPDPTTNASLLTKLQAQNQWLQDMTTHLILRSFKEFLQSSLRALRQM

O=C(O)CCCCCCCC(=O)O [Azelaic acid]
antibacterial effects [1]: antibacterial effects

Cc1cc(C2CCCCC2)n(O)c(=O)c1 [Ciclopirox]
antifungal activity [2]: fungicidal, fungistatic and sporicidal activity
activity against bacteria [3]: effective

C[C@@H]1[C@H](O)[C@@H](C)/C=C/C=C/C=C/C=C/C=C/C=C/C=C/[C@H](O[C@@H]2O[C@H](C)[C@@H](O)[C@H](N)[C@@H]2O)C[C@@H]2O[C@](O)(C[C@@H](O)C[C@@H](O)[C@H](O)CC[C@@H](O)C[C@@H](O)CC(=O)O[C@H]1C)C[C@H](O)[C@H]2C(=O)O [amphotericin B, Amphotericin B]
Effect on background fungal growth (plate counts and optical density) (C. albicans): reduced the background fungal growth
OD (600 nm) Mean ([4]; EC 10^3 initial concentration): 0.0410
OD (600 nm) Mean ([4]; EC 10^4 initial concentration): 0.0432
OD (600 nm) Mean ([4]; EC 10^5 initial concentration): 0.0562
OD (600 nm) Mean ([4]; EC 10^6 initial concentration): 0.1038
OD (600 nm) Mean ([4]; EC 10^7 initial concentration): 0.1274
OD (600 nm) Mean ([5]; SE 10^3 initial concentration): 0.0425
OD (600 nm) Mean ([5]; SE 10^4 initial concentration): 0.0437
OD (600 nm) Mean ([5]; SE 10^5 initial concentration): 0.0454
OD (600 nm) Mean ([5]; SE 10^6 initial concentration): 0.0611
OD (600 nm) Mean ([5]; SE 10^7 initial concentration): 0.0971

L-glutamic acid polymer with L-alanine, L-lysine and L-tyrosine, acetate (salt) [Glatiramer acetate]
inflammation and pathological manifestations of IBD [6]: reduce inflammation and ameliorate the pathological manifestations

siltuximab: chimeric, human-murine, immunoglobulin (Ig) Gκ mAb that binds and neutralizes human IL-6
binding and neutralization of human IL-6 (human IL-6): high affinity and specificity
